Values after ≈ are worked out from the molar mass of the structure shown. Read-outs that look alike come from different tables or passages of the source. Non-standard residues stand in square brackets, D forms with d. Residues, ends and D or L forms follow the SMILES beside them. Primed or numbered codes have the meaning given here. No end group written: not given here. pY = N[C@@H](Cc1ccc(OP(=O)(O)O)cc1)C(=O)O; FITC′ = not defined here
Experiments:
[1] = target: T1, full length SYK and FCER1G (Homo sapiens, UniProt P43405); test: GST pull-down (GST-PD) of GST-SYK and FCER1G-Flag from HEK293T cell lysates; assay type: biochemical; details: for PPI disruption in GST-PD: dose-response format; for Inhibition of SYK-GST / FCER1G-Flag interaction in pulldown: single concentration (100 μM)
T1 construct: full length GST-SYK and FCER1G-Flag were co-expressed in HEK293 cells prior to lysis; expressed in transfected cells; host or cells: HEK293T (CRL-3216, ATCC)
Description: Pull-down assays were used as an orthogonal assay to determine if the compounds could disrupt the PPI between full length SYK and FCER1G proteins from cell lysates. To optimize GST pulldown assays, full length GST-SYK and FCER1G-Flag were co-expressed in HEK293 cells prior to lysis and the protein expression and cell lysate concentrations tested (Fig 4A). All 40 compounds that progressed from uHTS were tested via GST-PD at a single concentration (100 μM) to determine if they could inhibit the PPI between the full-length proteins, with the p-ITAM FCER1G peptide used as a positive control (Fig 4B). […] Compound 24 contains a promiscuous maleimide, which is well known to react indiscriminately with proteins.
GST-, VF-tagged human SYK and FCER1G plasmids for mammalian expression were generated using Gateway cloning technology (Invitrogen) as described previously. The DNA was purified using ZymoPURE Plasmid Maxiprep Kit (D4203, Zymo Research).
WB secondary antibodies: peroxidase-conjugated AffiniPure Goat Anti-Mouse IgG (H+L) (115-035-003, Jackson Immuno Research) 1:5000 dilution in TBST. GST pulldown was performed as described with minor changes. HEK293T (CRL-3216, ATCC) were cultured in Dulbecco’s modified Eagle’s medium with 4.5 g/L glucose, L-glutamine, and sodium pyruvate (10–013-CV, Corning) supplemented with 10% fetal bovine serum and 1% penicillin/streptomycin solution (30–002-CI, CellGro). Cells were incubated at 37°C in humidified conditions with 5% CO2. The HEK293T cells were transfected using 1 mg/mL Polyethylenimine (PEI; 23966, Polysciences) in a ratio of 3 μL to 1 μg DNA. The proteins were expressed for 48 h at 37°C. Cell pellets were re-suspended in the SYK lysis buffer (25 mM HEPES, pH 7.5, 200 mM NaCl, 0.5% Triton X100 (T9284-1L, Sigma-Aldrich), followed by sonication for 10 s (5 s on, 5 s off) at 4°C. Cells were pelleted by 10 min centrifugation at 13,000 rpm at 4°C. The cleared lysates were first pre-incubated with compounds for 30 min and then incubated with glutathione sepharose 4B beads (17075605, Cytiva Sweden AB) at 4°C for 2 h with rotation. After the incubation, beads were washed three times with the SYK lysis buffer, eluted by boiling in sodium dodecyl sulfate-polyacrylamide gel electrophoresis (SDS–PAGE) loading buffer (1610737, Bio-Rad), and analyzed by western blotting.

SYK-tSH2 [2] = target: T2, SYK-tSH2 (Homo sapiens, UniProt P43405); test: Covalent labelling and intact mass spectrometry; assay type: binding; parameters: tandem SH2 domains of human SYK (residues M6-N269); 6xHis (N, cleaved yes); made in house; host or cells: E. coli BL21(DE3)-R3-pRARE; details: 100 μM, 1 h; for Number of mass adducts on SYK-tSH2: room temperature
Excerpt: The HTS hits 13 and 37 contain a kojic acid moiety, which is proposed to react covalently with proteins in the literature. As a result, we thought that it was likely these compounds are also reacting covalently with SYK-tSH2. […] When bound to the protein, these kojic acid-derived compounds have a 94 Da decrease in mass due to the loss of the pyridin-2-amine leaving group to reveal a Michael acceptor that can react covalently with cysteine residues (Fig 5B).
To expand on the initial 40 putative hits that were identified via uHTS (Fig 3D), additional commercially available structural analogues were ordered and screened via TR-FRET and differential scanning fluorimetry (DSF) (S1 Table). […] The observation of a substantial reduction in protein melting temperature motivated us to determine if the compounds interacted covalently with the SYK-tSH2 domains. Additionally, since the thiourea in these small molecules is reported to react via oxidation, the compounds could be capable of forming a covalent disulfide bond with cysteine residues on SYK [39]. We used compound 1, which is a known covalent modifier of SYK-tSH2, as a positive control in the mass spectrometry analysis. […] Literature reports support that this type of chemical reaction can occur in DMSO, forming a disulfide bond. […] Like we had originally observed for the older DMSO stock solution of 42 (Fig 6C), 44 forms two to four mass adducts (422 Da and 844 Da) more than the protein mass when incubated SYK-tSH2 for 1 h (Fig 6D). […] Due to the mass adducts of two to four (422 Da and 844 Da), we propose that 44 is forming a disulfide bond with between two or four cysteines on SYK-tSH2 (Fig 6G).

MSN = MSN (Homo sapiens, UniProt P26038); test: Covalent labelling and intact mass spectrometry (selectivity); details: 100 μM, 1 h, room temperature; four available cysteines
Sequence of MSN (P26038 whole entry, species assumed): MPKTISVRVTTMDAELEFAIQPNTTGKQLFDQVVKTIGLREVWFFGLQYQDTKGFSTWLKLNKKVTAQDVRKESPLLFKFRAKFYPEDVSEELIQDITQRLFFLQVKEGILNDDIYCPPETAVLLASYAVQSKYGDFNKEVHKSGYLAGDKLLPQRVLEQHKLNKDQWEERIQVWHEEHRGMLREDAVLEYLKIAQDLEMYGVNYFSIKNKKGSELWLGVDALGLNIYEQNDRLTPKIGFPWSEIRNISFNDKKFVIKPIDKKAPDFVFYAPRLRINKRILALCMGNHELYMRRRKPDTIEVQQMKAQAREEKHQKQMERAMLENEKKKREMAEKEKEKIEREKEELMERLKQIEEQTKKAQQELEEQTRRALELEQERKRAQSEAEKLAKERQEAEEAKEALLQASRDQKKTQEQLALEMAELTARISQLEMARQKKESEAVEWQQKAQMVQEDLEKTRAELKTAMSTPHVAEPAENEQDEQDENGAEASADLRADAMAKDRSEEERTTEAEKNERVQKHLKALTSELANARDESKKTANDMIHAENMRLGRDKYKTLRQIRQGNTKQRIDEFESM

[3] = Compound solubility with nephelometer; assay type: physicochemical; details: aqueous buffer, kinetic from dmso stock, PBS, 90 min at room temperature
Description: Stock compound (10 mM in DMSO) was serial diluted in PBS (21-040-CV, Corning) in 96-well Costar Assay plate (3904, Corning). After incubating compound in PBS for 90 min at room temperature, the Nephelometric turbidity units (NTUs) were measured with NEPHELOstar (BMG LABTECH, Cary, North Carolina). 0.2 s was used for a measure time and PBS only as the background. Each sample was tested in triplicate. Dose-response data was analyzed by GraphPad Prism and the solubility concentration is defined at the concentration that increases the NTUs at the turning point of the curve.

[4] = target: 6xHis-SYK-tSH2 (tandem SH2 domains of human SYK, residues M6-N269, SYKA-c020 tagged) (human) (UniProt P43405); test: AlphaScreen or HTRF; TR-FRET competition: 6xHis-SYK-tSH2 4 nM with Tb-conjugated anti-6xHis antibody, FITC-conjugated FCER1G peptide 8 nM, unlabeled peptide titrated; 25 mM HEPES pH 7.5, 200 mM NaCl, 0.1% BSA, 0.05% Tween-20; 2 h at room temperature
Tg Tau P301S mice = details: cited from earlier work
[5] = test system: primary neuron-glia cultures; parameters: method as in PMID 37009452; details: cited from earlier work
SH-SY5Y cells = test system: SH-SY5Y cells; parameters: method as in PMID 31324720; details: 5 μM, cited from earlier work
[6] = target: T3, SYK-tSH2 / FCER1G p-ITAM interaction (Homo sapiens, UniProt P43405); test: TR-FRET assay of 6xHis-SYK-tSH2 with FITC-labeled FCER1G p-ITAM peptide; assay type: biochemical
T3 construct: the tSH2 domain of SYK (residues M6-N269) fused to an N-terminal 6×His tag; made in house; host or cells: E. coli BL21(DE3)-R3-pRARE
Excerpt: To facilitate identification of inhibitors of the SYK-FCER1G interaction, we developed a TR-FRET assay using recombinant protein comprising the tSH2 domain of SYK (residues M6-N269) fused to an N-terminal 6×His tag (S1A Fig). The TR-FRET assay is based on the interaction of a FITC-labeled FCER1G p-ITAM peptide to the 6×His-SYK-tSH2 protein in complex with a terbium-conjugated anti-His antibody (Tb-Ab) (Fig 3B). Once excited, a TR-FRET signal is generated from the Tb donor to the FITC acceptor fluorophore. […] To enable uHTS for large scale screening of small molecule libraries, we miniaturized the TR-FRET assay from 96-well plate format to a 1536-well.
TR-FRET experiments were performed in 20 μL reactions, using 384-well shallow-well microplates (PerkinElmer). Final reaction components contained 6xHis-SYK-tSH2 (SYKA-c020 tagged) (4 nM), FITC-conjugated FCER1G peptide (8 nM), Tb-conjugated anti-6xHis antibody (53 ng/ml; Cisbio) in assay buffer containing 25 mM HEPES (pH 7.5), 200 mM NaCl, 0.1% BSA and 0.05% Tween-20. After a 2h incubation (at room temperature), TR-FRET signals were measured on a BMG Labtech PHERAstar FSX reader using a Lanthascreen Optics Module. A 200 μs delay was used after excitation with a flash lamp before measurement of fluorescence emission at […]. TR-FRET ratios of fluorescent intensity at 520 nm to 490 nm were calculated. The half maximal inhibitory concentration (IC50) was determined by fitting a four parametric logistic curve to the data.

[7] = LCMS characterization of fresh versus older DMSO stocks; assay type: physicochemical; details: older DMSO stocks versus freshly prepared solutions
Excerpt: To expand on the initial 40 putative hits that were identified via uHTS (Fig 3D), additional commercially available structural analogues were ordered and screened via TR-FRET and differential scanning fluorimetry (DSF) (S1 Table). […] The observation of a substantial reduction in protein melting temperature motivated us to determine if the compounds interacted covalently with the SYK-tSH2 domains. Additionally, since the thiourea in these small molecules is reported to react via oxidation, the compounds could be capable of forming a covalent disulfide bond with cysteine residues on SYK [39]. We used compound 1, which is a known covalent modifier of SYK-tSH2, as a positive control in the mass spectrometry analysis. […] Literature reports support that this type of chemical reaction can occur in DMSO, forming a disulfide bond. […]
Supplementary file pone.0293548.s005.tiff: S4 Fig Identification of active disulfide compounds which form in DMSO solutions of compounds 42 and 43. […] LCMS Calculated for [M+H]^+ C7H9N4O2S: 213.04; observed: 213.1 [M+H]^+. […] LCMS Calculated for [M+H]^+ C14H15N8O4S2: 423.06; observed: 423.0 [M+H]^+. […] LCMS Calculated for [M+H]^+ C10H15N4O2S: 255.08; observed: 255.1 [M+H]^+. […] LCMS Calculated for [M+H]^+ C20H27N8O4S2: 507.15; observed: 507.1 [M+H]^+. […]

SYK-tSH2 [8] = target: T2, SYK-tSH2; test: Bio-layer interferometry (BLI) direct binding; details: biotinylated SYK-tSH2
[9] = competition of FITC-labeled FCER1G p-ITAM peptide by unlabeled peptide

O=c1cc(CO)oc(C(Nc2ccccn2)c2ccc3c(c2)OCO3)c1O (stereo not drawn) [compound 37]
PPI disruption in GST-PD [1]: confirmed to disrupt the PPI | Inhibition of SYK-GST / FCER1G-Flag interaction in pulldown [1]: able to inhibit the interaction | Number of mass adducts on SYK-tSH2 (SYK-tSH2 [2]): between two and seven | Number of mass adducts on MSN (MSN): one weak mass adduct | solubility at 90 min [3]: 100 µM (≈ 36.8 µg/mL)

FCER1G-phospho-ITAM[62–81] (peptide)
IC50 [4]: 12 nM

COc1ccc(-c2cc3nccn3c(Nc3ncccc3C(N)=O)n2)cc1OC.Cl.Cl [BAY61-3606, 2-[7-(3,4-Dimethoxyphenyl)-imidazo[1,2-c]pyrimidin-5-ylamino]nicotinamide Dihydrochloride]
Levels of phospho-tau and total tau (Tg Tau P301S mice; Tg Tau P301S mice, 20 mg/kg, 12 weeks): reduced levels of phospho-tau (p-tau) and total tau (t-tau) | Effect in mouse tauopathy models (Tg Tau P301S mice; mouse tauopathy models): decreased tau accumulation, neuronal and synaptic loss, neuroinflammation, and reversed defective autophagy | Microglial-mediated phagocytosis of synapses and neurons [5]: reduced microglial-mediated phagocytosis of synapses and neurons | LPS-induced neuronal loss ([5]; primary neuron-glia cultures): prevented lipopolysaccharide (LPS)-induced neuronal loss | p-AKT, p-mTOR and p-p70 S6K levels (SH-SY5Y cells): reduces p-AKT, p-mTOR, and p-p70 S6K levels | Phosphorylated and total tau levels (SH-SY5Y cells; in vitro): reduces phosphorylated and total tau levels

CC(C)n1c(S)nc2c1c(=O)n(C)c(=O)n2C [compound 43]
Covalent modification of SYK-tSH2 (SYK-tSH2 [2]; older DMSO stock solutions): did not demonstrate covalent attachment | IC50 [6]: 3000 ± 1700 nM | Stability in DMSO stock solution [7]: had formed corresponding disulfide dimers in DMSO over time | BLI KD (SYK-tSH2 [8]): did not bind | Kd (SYK-tSH2 [8]; read-out: BLI KD): > 100000 nM

O=c1cc(CO)oc(C(Nc2ccccn2)c2ccc(F)cc2)c1O (stereo not drawn) [compound 13]
PPI disruption in GST-PD [1]: confirmed to disrupt the PPI | Inhibition of SYK-GST / FCER1G-Flag interaction in pulldown [1]: able to inhibit the interaction | Number of mass adducts on SYK-tSH2 (SYK-tSH2 [2]): between one and five | Number of mass adducts on MSN (MSN): one weak mass adduct | solubility at 90 min [3]: 100 µM (≈ 34.2 µg/mL)

CC(C)C[C@H](NC(=O)CNC(=O)[C@@H](NC(=O)[C@H](Cc1ccc(OP(=O)(O)O)cc1)NC(=O)[C@@H](NC(=O)CNC(=O)[C@@H](N)CC(=O)O)C(C)C)[C@@H](C)O)C(=O)N[C@@H](CO)C(=O)N[C@H](C(=O)N[C@@H](CCCNC(=N)N)C(=O)N[C@@H](CC(N)=O)C(=O)N[C@@H](CCC(N)=O)C(=O)N[C@@H](CCC(=O)O)C(=O)N[C@H](C(=O)N[C@@H](Cc1ccc(OP(=O)(O)O)cc1)C(=O)N[C@@H](CCC(=O)O)C(=O)N[C@H](C(=O)N[C@@H](CC(C)C)C(=O)N[C@@H](CCCCN)C(=O)N[C@@H](Cc1c[nH]cn1)C(=O)O)[C@@H](C)O)[C@@H](C)O)[C@@H](C)O [FCER1G p-ITAM peptide] (H-DGV[pY]TGLSTRNQET[pY]ETLKH-OH)
IC50 [6, 9]: 12 nM

O=C1C=CC(=O)N1c1ccc(Sc2ccc(N3C(=O)C=CC3=O)cc2)cc1 [compound 24]
PPI disruption in GST-PD [1]: confirmed to disrupt the PPI | Inhibition of SYK-GST / FCER1G-Flag interaction in pulldown [1]: able to inhibit the interaction

FCER1G-nonphospho-ITAM[62–81]-FITC (peptide)
IC50 [4]: > 1000 nM

non-phosphorylated FCER1G ITAM peptide: non-phosphorylated FCER1G ITAM peptide used as control (DGVYTGLSTRNQETYETLKH-{FITC′})
IC50 [6, 9]: > 1000 nM
